Test results: the NIST ThermoML archive (doi:10.1021/je0501585)

Assay: xn = mol fraction of the nth substance listed
Conditions: 101 kPa, Liquid; for viscosity: Capillary tube (Ostwald / Ubbelohde) method; for excess molar volume: Direct dilatometry; for speed of sound: Linear variable-path acoustic interferometer

Cc1ccc(C)cc1 [1,4-dimethylbenzene] + CCCCCCCCCC
Conditions | excess molar volume, 303.15 K [m3/mol] | excess molar volume, 308.15 K [m3/mol] | excess molar volume, 313.15 K [m3/mol] | speed of sound, 303.15 K [m/s] | speed of sound, 308.15 K [m/s] | speed of sound, 313.15 K [m/s] | viscosity, 303.15 K [mPa·s] | viscosity, 308.15 K [mPa·s] | viscosity, 313.15 K [mPa·s]
x1 = 0.1533 | 2.83e-07 | 4.89e-07 | 6.99e-07 | 1215.1 | 1192.3 | 1176.9 | 0.729 | 0.678 | 0.66
x1 = 0.2952 | 4.35e-07 | 6.8e-07 | 9.11e-07 | 1220 | 1197.6 | 1182 | 0.68 | 0.639 | 0.623
x1 = 0.4189 | 5.14e-07 | 7.6e-07 | 9.8e-07 | 1225.5 | 1203.1 | 1187.7 | 0.646 | 0.609 | 0.59
x1 = 0.4949 | 5.29e-07 | 7.59e-07 | 9.81e-07 | 1230 | 1207.3 | 1192 | 0.628 | 0.592 | 0.573
x1 = 0.6001 | 4.9e-07 | 7.03e-07 | 9.41e-07 | 1237.9 | 1214.1 | 1198.8 | 0.605 | 0.572 | 0.552
x1 = 0.6938 | 4.26e-07 | 6.32e-07 | 8.76e-07 | 1246.6 | 1221.6 | 1205.6 | 0.588 | 0.557 | 0.538
x1 = 0.7777 | 3.54e-07 | 5.56e-07 | 7.71e-07 | 1255.4 | 1229 | 1212.5 | 0.576 | 0.546 | 0.527
x1 = 0.8604 | 2.73e-07 | 4.55e-07 | 6.47e-07 | 1265.3 | 1238.4 | 1221.3 | 0.568 | 0.539 | 0.519
x1 = 0.9332 | 1.72e-07 | 3.03e-07 | 4.4e-07 | 1274.4 | 1251 | 1232.8 | 0.566 | 0.537 | 0.515
x1 = 1 | 0 | 0 | 0 | 1283.7 | 1271 | 1260 | 0.566 | 0.537 | 0.513
